Measured values as given in publication PMC10096842, “Identification of Flavone Derivative Displaying a 4′-Aminophenoxy Moiety as Potential Selective Anticancer Agent in NSCLC Tumor Cells” (Molecules, 2023).

Legend:
H1975 cells [1] = assay: Annexin V-FITC/PI apoptosis flow cytometry, H1975; format: cell-based, human
Experimental: (§1) Apoptosis was analyzed by flow cytometry using an Annexin V-FITC apoptosis detection kit (Biolegend, San Diego, CA, USA), according to the manufacturer’s instructions. A549, H1975, and HDF cells were treated with […] concentrations of APF-1 (1.5 and 3 µM). […] Briefly, control and treated cells were trypsinized, washed twice with ice-cold PBS, and resuspended in 1X Annexin binding buffer at a final concentration of 1.0 × 10^6 cell/mL. A total of 5 µL Annexin V-FITC and 10 µL Propidium Iodide (PI) were added to the cell suspension and the mixture was incubated for 15 min at rt in the dark. Samples were analyzed using the Guava EasyCyte flow cytometer (Merk-Millipore, Louis Missouri, USA). A total of 5000 events were acquired for each sample. Annexin V-FITC was detected as a green fluorescence (λex = 488 nm; λem = 516 nm) and PI was detected as a red fluorescence (λex = 535 nm; λem = 617 nm). Early apoptosis is defined by Annexin V+/PI− staining, late apoptosis is defined by Annexin V+/PI+ staining, and necrosis is defined by Annexin V−/PI+ staining.

[2] = tested on: p21^waf1/cip1 protein level in H1975 cells; assay: Western blot of p21 expression, H1975; format: cell-based, human; settings: 24 h
Experimental: (§2) Analysis of cell extracts (20 µg total proteins) was performed using SDS-PAGE 12% (Bio-Rad Laboratories, Hercules, CA, USA). Electrophoresis was carried out under reducing conditions, where uniformly negatively charged proteins move according to their mass. The proteins were then transferred to a PVDF membrane using the Trans-Blot Turbo instrument (Bio-Rad Laboratories, USA), after which the membrane was blocked with Every Blot Blocking Buffer (Bio-Rad Laboratories, USA). P21 protein levels were analyzed by Western blotting using a specific rabbit monoclonal primary antibody that specifically recognizes p21 protein (ab109199, Cambridge, MA, USA), and a secondary antibody anti-rabbit HRP (TA130023, OriGene Technologies, Rockville, MD 20850, USA) and detected by chemiluminescence using the Chemidoc device (Bio-Rad Laboratories, USA). […] GADPH protein levels were analyzed by Western blotting using a specific rabbit monoclonal primary antibody that specifically recognizes this protein (ARC0205, catalog number MA535235, Thermo Scientific, Waltham, MA, USA) and secondary antibody anti-rabbit HRP (TA130023, OriGene Technologies, Rockville, MD 20850, USA), also in this case detected by chemiluminescence with the Chemidoc instrument (Bio-Rad Laboratories, USA).

A549 NSCLC cells = assay: MTT cell viability assay, A549; format: cell-based, human; settings: for IC50: A549, 72 h, MTT; for SI (Selectivity Index): IC50 HDF / IC50 A549
Experimental: (§3) The human non-small cell lung cancer (NSCLC) and Human Dermal Fibroblasts (HDF) cell lines were all obtained from the American Type Culture Collection (ATCC). The H1975 (CRL-5908™) cell line was grown in RPMI 1640 medium (ECB2000) while the A549 (CCL-185™) and HDF were grown in complete DMEM medium (ECM0095) All cultures were supplemented with 10% fetal bovine serum (FBS), 2 mM L-glutamine, 100 U/mL penicillin, and 100 µg/mL streptomycin,. All cell lines were routinely maintained in 75 cm^2 flasks in a cell incubator at 37 °C, 5% CO2, and 95% relative humidity. The cell cultures were detached by trypsinization with 0.5% trypsin in PBS containing 0.025% EDTA. All cell culture reagents were supplied by Euroclone (Milan, Italy).
(§4) The number of metabolically active cells, and thus cell viability, was assessed by a 3-(4,5-dimethylthiazol-2-yl)-2,5-diphenyltetrazolium bromide (MTT) assay as previously described. The NSCLC cell lines (A549 and H1975) and HDF were seeded in 96-well plates to reach 50% confluence at 24 h; then, the medium was removed and replaced with 0.2 mL of fresh culture medium containing increasing compound concentrations (0–160 µM). After 72 h, the medium from each well was removed and replaced with fresh medium supplemented with MTT at a final concentration of 200 µg/mL. After incubation for 4 h at 37 °C, 0.2 mL of DMSO was added to each well followed by multiwell shaking for 4 min. The absorbance was read on a multiwell scanning microplate reader (BioTek Synergy HT MicroPlate Reader Spectrophotometer, BioTek Instruments Inc., Winooski, VT, USA) at 570 nm using the extraction buffer as a blank. The optical density in the control group (untreated cells) was considered as 100% viability. The relative cell viability (%) was calculated as (OD570 of treated samples/OD570 of untreated samples) × 100. Dose-dependent curves were therefore generated for the cytotoxic studies. The 50% inhibiting concentration (IC50) was determined by non-linear regression analysis with a three-parameter fit by utilizing SigmaPlot 12.0 Software, USA, Systat Software, Inc. SigmaPlot for Windows. Each experiment was performed at least five times in triplicate.

[3] = LogP determination (1-octanol/PBS partition, UV-vis); format: physicochemical; settings: for logP: 1-octanol/PBS, pH 7.4, 1-octanol/PBS pH 7.4, read-out: Experimental LogP
Experimental: LogP was determined as previously described. Briefly, solutions of each APF were prepared in 1-octanol, and UV-vis spectra were acquired to determine the λmax. After having placed 2.5 mL of each solution in 10 mL conical centrifuge tubes, PBS was added (2.5 mL, pH 7.4) and the biphasic system was mixed using a vortex mixer (VELP Scientifica, Usmate Velate MB, Italy) followed by centrifugation (2000× g, 5 min). Then, the octanol phase absorption was measured at λmax. The partition coefficient Ko/w was calculated according to the following equation:Ko/w = [APF]oct/[APF]PBS = […] where Ai is the initial measured absorbance in octanol, pre-extraction, and Af is the final measured absorbance in octanol, post-extraction.

H1975 NSCLC cells = assay: MTT cell viability assay, H1975; format: cell-based, human; settings: for IC50: H1975, 72 h, MTT; for SI (Selectivity Index): IC50 HDF / IC50 H1975
Experimental: as §3, §4

[4] = tested on: p21^waf1/cip1 protein level in A549 cells; assay: Western blot of p21 expression, A549; format: cell-based, human; settings: A549, higher APF-1 concentration (3 µM), 24 h
Experimental: as §2

A549 cells [5] = assay: Annexin V-FITC/PI apoptosis flow cytometry, A549; format: cell-based, human
Experimental: as §1

HDF cells [6] = assay: Cell cycle analysis (PI, flow cytometry), HDF; format: cell-based, human; settings: 1.5 and 3 µM, 24 h
Experimental: (§5) Cell cycle analyses were performed by using a Guava easyCyte flow cytometer (Merk-Millipore, MA, USA) and the DNA content was determined by propidium iodide (PI) method as previously described. Briefly, A549, H1975, and HDF were treated with APF-1 at 1.5 and 3 µM concentrations for 24 h. Cells were harvested, washed twice with cold PBS, and fixed with 70% ice-cold ethanol and kept at […] for 2 h. The fixed cells were centrifugated at 4 °C and suspended in a master mix solution containing PBS, PI (40 µg/mL), and RNase (100 µg/mL) for 30 min at 37 °C in the dark. Samples were run through the Guava easyCyte flow cytometer set to internal cell cycle analysis protocol and 5000 cells per sample were measured. The percentage of cell cycle phases (G0/G1, S, and G2/M) was quantified using MultiCycle AV Cell Cycle in FCS Express 7 software (DeNovo Software, Pasadena, CA, USA). The experiment was performed three times in triplicate.

H1975 cells [7] = assay: Cell cycle analysis (PI, flow cytometry), H1975; format: cell-based, human; settings: H1975, 3 µM, 24 h
Experimental: as §5

[8] = tested on: p21 expression in HDF cell line; assay: Western blot of p21 expression, HDF; format: cell-based, human; settings: APF-1 treatment, 24 h
Experimental: as §2

A549 cells [9] = assay: Cell cycle analysis (PI, flow cytometry), A549; format: cell-based, human; settings: 24 h
Experimental: as §5

[10] = tested on: human dermal fibroblasts (HDF); assay: MTT cell viability assay, HDF; format: cell-based; settings: Fibroblast, 72 h
Experimental: as §3, §4

[11] = Annexin V-FITC/PI apoptosis flow cytometry, HDF; format: cell-based, human; settings: human, HDF cells, HDF, 24 h, read-out: live/viable (Annexin V−PI−) cells
Experimental: as §1

HDF cells [12] = assay: Annexin V-FITC/PI apoptosis flow cytometry, HDF; format: cell-based, human
Experimental: as §1

## Nc1ccc(Oc2ccc3oc(-c4cccc(Oc5ccccc5)c4)cc(=O)c3c2)cc1 [APF-1]
H1975 cells [1]; H1975, 1.5 µM, 24 h
  early apoptotic (Annexin V+PI−) cells: 16%
  late apoptotic (Annexin V+PI+) cells: 11%
H1975 cells [1]; H1975, 3 µM, 24 h
  increase of early apoptosis compared to untreated cells: 2.6 fold
  increase of late apoptosis compared to untreated cells: 6.5 fold
H1975 cells [1]; Homo sapiens, NCI-H1975, 24 h, H1975, 1.5 µM, 24 h, read-out: live/viable (Annexin V−PI−) cells
  viability at 1.5 µM: 70.9%
H1975 cells [1]; Homo sapiens, NCI-H1975, 24 h, H1975, 3 µM, 24 h, read-out: live/viable (Annexin V−PI−) cells
  viability at 3 µM: 46%
H1975 cells [1]; cancer cells (H1975), Figure 3D
  induction of apoptosis (sum of early and late apoptosis) with respect to untreated cells: about 4 times
[2]; H1975, 1.5 µM
  increase in p21 level with respect to untreated cells: 3 fold
[2]; H1975, 3 µM
  increase in p21 level with respect to untreated cells: 3 fold
A549 NSCLC cells
  IC50: 4.2 ± 0.4 µM
  SI (Selectivity Index): 16
A549 NSCLC cells; Homo sapiens
  IC50: 4 µM
[3]
  logP: 3.2 ± 0.1
H1975 NSCLC cells; H1975
  SI increase compared with doxorubicin: ~ 4.5 fold
H1975 NSCLC cells
  IC50: 2.3 ± 0.2 µM
H1975 NSCLC cells; Homo sapiens, NCI-H1975, 72 h
  IC50: 2 µM
[4]
  increase in p21^waf1/cip1 expression with respect to untreated cells: 1.5 fold
A549 cells [5]; A549, 3 µM, 24 h
  increase in early apoptosis with respect to untreated cells: 2 fold
A549 cells [5]; Homo sapiens, A549, 24 h, A549, 1.5 µM, 24 h, read-out: live/viable (Annexin V−PI−) cells
  viability at 1.5 µM: 86%
A549 cells [5]; Homo sapiens, A549, 24 h, A549, 3 µM, 24 h, read-out: live/viable (Annexin V−PI−) cells
  viability at 3 µM: 73%
A549 cells [5]; cancer cells (A549), Figure 3D
  induction of apoptosis (sum of early and late apoptosis) with respect to untreated cells: about 4 times
HDF cells [6]
  effect on cell cycle profile: not affected
H1975 cells [7]
  cells in G0/G1 phase: 24%
  cells in G2/M phase: 70%
  cells in S phase: 5.6%
  increase in G2/M phase population compared to untreated cells: 2 fold
[8]
  change in p21 expression: did not observe any significant change
A549 cells [9]; A549, 1.5 µM
  increase in G2/M phase compared to the untreated cells: 2.8 fold
A549 cells [9]; A549, 3 µM
  cells in G2/M phase: 75%
[10]
  IC50: 62 ± 6 µM
[11]; 1.5 µM
  viability at 24 h, 1.5 µM: 92%
[11]; 3 µM
  viability at 24 h, 3 µM: 86%
HDF cells [12]; HDF, 1.5 and 3 µM, 24 h
  effect on the number of late apoptotic cells: did not detect any effect
HDF cells [12]; HDF, highest APF-1 concentration (3 µM), 24 h
  increase in early apoptosis: 4.7 fold
HDF cells [12]; fibroblasts, Figure 3D
  induction of apoptosis (sum of early and late apoptosis) compared with cancer cells: lower

## Nc1ccc(Oc2ccc3oc(-c4ccccc4)cc(=O)c3c2)cc1 [APF-2, 6-(4-aminophenoxy)-2-(phenyl)-4H-chromen-4-one]
A549 NSCLC cells; Homo sapiens
  IC50: 22 ± 3 µM
A549 NSCLC cells
  SI (Selectivity Index): >8
[3]; 1-octanol/PBS pH 7.4
  Experimental LogP: 2.1 ± 0.3
[3]
  logP: 2.3
H1975 NSCLC cells; Homo sapiens, NCI-H1975, 72 h
  IC50: 50 ± 5 µM
H1975 NSCLC cells
  SI (Selectivity Index): >3
[10]
  IC50: > 160 µM

## Nc1ccc(Oc2ccc3c(=O)cc(-c4cccc(Oc5ccccc5)c4)oc3c2)cc1 [APF-3, 7-(4-aminophenoxy)-2-(3′-phenoxy)phenyl-4H-chromen-4-one]
A549 NSCLC cells; Homo sapiens
  IC50: 33 ± 2 µM
A549 NSCLC cells
  SI (Selectivity Index): 2
[3]
  logP: 3.3 ± 0.2
H1975 NSCLC cells; Homo sapiens, NCI-H1975, 72 h
  IC50: 40 ± 4 µM
H1975 NSCLC cells
  SI (Selectivity Index): 2
[10]
  IC50: 80 ± 3 µM
